{"source": "ChEMBL document CHEMBL1201861", "about": "“Genomics of Drug Sensitity in Cancer screening data, Wellcome Trust Sanger Institute”", "test_in_all_cases": "cells", "conditions_in_all_cases": "Homo sapiens", "key": {"A388": {"system": "A388", "assay_type": "functional, cell-based", "description": "SANGER: Inhibition of human A388 cell growth in a cell viability assay."}, "MZ7-mel": {"system": "MZ7-mel", "assay_type": "functional, cell-based", "description": "SANGER: Inhibition of human MZ7-mel cell growth in a cell viability assay."}, "KGN": {"system": "KGN", "assay_type": "functional, cell-based", "description": "SANGER: Inhibition of human KGN cell growth in a cell viability assay."}, "HT-144": {"system": "HT-144", "assay_type": "functional, cell-based", "description": "SANGER: Inhibition of human HT-144 cell growth in a cell viability assay."}, "SHP77": {"system": "SHP77", "assay_type": "functional, cell-based, SHP-77", "description": "SANGER: Inhibition of human SHP-77 cell growth in a cell viability assay."}, "EW-24": {"system": "EW-24", "assay_type": "functional, cell-based", "description": "SANGER: Inhibition of human EW-24 cell growth in a cell viability assay."}, "ES3": {"system": "ES3", "assay_type": "functional, cell-based", "description": "SANGER: Inhibition of human ES3 cell growth in a cell viability assay."}, "A704": {"system": "A704", "assay_type": "functional, cell-based", "description": "SANGER: Inhibition of human A704 cell growth in a cell viability assay."}, "KM12": {"system": "KM12", "assay_type": "functional, cell-based", "description": "SANGER: Inhibition of human KM12 cell growth in a cell viability assay."}, "LS-123": {"system": "LS-123", "assay_type": "functional, cell-based", "description": "SANGER: Inhibition of human LS-123 cell growth in a cell viability assay."}, "SNU-C2B": {"system": "SNU-C2B", "assay_type": "functional, cell-based", "description": "SANGER: Inhibition of human SNU-C2B cell growth in a cell viability assay."}, "SK-MEL-2": {"system": "SK-MEL-2", "assay_type": "functional, cell-based", "description": "SANGER: Inhibition of human SK-MEL-2 cell growth in a cell viability assay."}, "ACN": {"system": "ACN", "assay_type": "functional, cell-based", "description": "SANGER: Inhibition of human ACN cell growth in a cell viability assay."}, "JAR": {"system": "JAR", "assay_type": "functional, cell-based", "description": "SANGER: Inhibition of human JAR cell growth in a cell viability assay."}, "A3-KAW": {"system": "A3-KAW", "assay_type": "functional, cell-based", "description": "SANGER: Inhibition of human A3-KAW cell growth in a cell viability assay."}, "COR-L88": {"system": "COR-L88", "assay_type": "functional, cell-based", "description": "SANGER: Inhibition of human COR-L88 cell growth in a cell viability assay."}, "KY821": {"system": "KY821", "assay_type": "functional, cell-based", "description": "SANGER: Inhibition of human KY821 cell growth in a cell viability assay."}, "QIMR-WIL": {"system": "QIMR-WIL", "assay_type": "functional, cell-based", "description": "SANGER: Inhibition of human QIMR-WIL cell growth in a cell viability assay."}, "GB-1": {"system": "GB-1", "assay_type": "functional, cell-based", "description": "SANGER: Inhibition of human GB-1 cell growth in a cell viability assay."}, "OCI-AML2": {"system": "OCI-AML2", "assay_type": "functional, cell-based", "description": "SANGER: Inhibition of human OCI-AML2 cell growth in a cell viability assay."}, "OS-RC-2": {"system": "OS-RC-2", "assay_type": "functional, cell-based", "description": "SANGER: Inhibition of human OS-RC-2 cell growth in a cell viability assay."}, "COLO-800": {"system": "COLO-800", "assay_type": "functional, cell-based", "description": "SANGER: Inhibition of human COLO-800 cell growth in a cell viability assay."}, "SBC-1": {"system": "SBC-1", "assay_type": "functional, cell-based", "description": "SANGER: Inhibition of human SBC-1 cell growth in a cell viability assay."}, "C8166": {"system": "C8166", "assay_type": "functional, cell-based", "description": "SANGER: Inhibition of human C8166 cell growth in a cell viability assay."}, "COLO-668": {"system": "COLO-668", "assay_type": "functional, cell-based", "description": "SANGER: Inhibition of human COLO-668 cell growth in a cell viability assay."}, "SJSA-1": {"system": "SJSA-1", "assay_type": "functional, cell-based", "description": "SANGER: Inhibition of human SJSA-1 cell growth in a cell viability assay."}, "ES8": {"system": "ES8", "assay_type": "functional, cell-based", "description": "SANGER: Inhibition of human ES8 cell growth in a cell viability assay."}, "EW-3": {"system": "EW-3", "assay_type": "functional, cell-based", "description": "SANGER: Inhibition of human EW-3 cell growth in a cell viability assay."}, "HuTu80": {"system": "HuTu80", "assay_type": "functional, cell-based, HUTU-80", "description": "SANGER: Inhibition of human HUTU-80 cell growth in a cell viability assay."}, "SNU-5": {"system": "SNU-5", "assay_type": "functional, cell-based", "description": "SANGER: Inhibition of human NCI-SNU-5 cell growth in a cell viability assay."}, "EOL1": {"system": "EOL1", "assay_type": "functional, cell-based", "description": "SANGER: Inhibition of human EoL-1-cell cell growth in a cell viability assay."}, "SK-PN-DW": {"system": "SK-PN-DW", "assay_type": "functional, cell-based", "description": "SANGER: Inhibition of human SK-PN-DW cell growth in a cell viability assay."}, "IA-LM": {"system": "IA-LM", "assay_type": "functional, cell-based", "description": "SANGER: Inhibition of human IA-LM cell growth in a cell viability assay."}, "RKO": {"system": "RKO", "assay_type": "functional, cell-based", "description": "SANGER: Inhibition of human RKO cell growth in a cell viability assay."}, "LNCaP-Clone-FGC": {"system": "LNCaP-Clone-FGC", "assay_type": "functional, cell-based", "description": "SANGER: Inhibition of human LNCaP-Clone-FGC cell growth in a cell viability assay."}, "NCI-H1155": {"system": "NCI-H1155", "assay_type": "functional, cell-based", "description": "SANGER: Inhibition of human NCI-H1155 cell growth in a cell viability assay."}, "BB30-HNC": {"system": "BB30-HNC", "assay_type": "functional, cell-based", "description": "SANGER: Inhibition of human BB30-HNC cell growth in a cell viability assay."}, "HCE-4": {"system": "HCE-4", "assay_type": "functional, cell-based", "description": "SANGER: Inhibition of human HCE-4 cell growth in a cell viability assay."}, "BE-13": {"system": "BE-13", "assay_type": "functional, cell-based", "description": "SANGER: Inhibition of human BE-13 cell growth in a cell viability assay."}, "LB831-BLC": {"system": "LB831-BLC", "assay_type": "functional, cell-based", "description": "SANGER: Inhibition of human LB831-BLC cell growth in a cell viability assay."}, "KMOE-2": {"system": "KMOE-2", "assay_type": "functional, cell-based", "description": "SANGER: Inhibition of human KMOE-2 cell growth in a cell viability assay."}, "EW-1": {"system": "EW-1", "assay_type": "functional, cell-based", "description": "SANGER: Inhibition of human EW-1 cell growth in a cell viability assay."}, "NCI-H209": {"system": "NCI-H209", "assay_type": "functional, cell-based", "description": "SANGER: Inhibition of human NCI-H209 cell growth in a cell viability assay."}, "DMS-114": {"system": "DMS-114", "assay_type": "functional, cell-based"}, "SW872": {"system": "SW872", "assay_type": "functional, cell-based", "description": "SANGER: Inhibition of human SW872 cell growth in a cell viability assay."}, "IST-MEL1": {"system": "IST-MEL1", "assay_type": "functional, cell-based", "description": "SANGER: Inhibition of human IST-MEL1 cell growth in a cell viability assay."}, "NCI-H446": {"system": "NCI-H446", "assay_type": "functional, cell-based", "description": "SANGER: Inhibition of human NCI-H446 cell growth in a cell viability assay."}, "GCIY": {"system": "GCIY", "assay_type": "functional, cell-based", "description": "SANGER: Inhibition of human GCIY cell growth in a cell viability assay."}, "GOTO": {"system": "GOTO", "assay_type": "functional, cell-based", "description": "SANGER: Inhibition of human GOTO cell growth in a cell viability assay."}, "LB2241-RCC": {"system": "LB2241-RCC", "assay_type": "functional, cell-based", "description": "SANGER: Inhibition of human LB2241-RCC cell growth in a cell viability assay."}, "CCRF-CEM": {"system": "CCRF-CEM", "assay_type": "functional, cell-based", "description": "SANGER: Inhibition of human CCRF-CEM cell growth in a cell viability assay."}, "ES1": {"system": "ES1", "assay_type": "functional, cell-based", "description": "SANGER: Inhibition of human ES1 cell growth in a cell viability assay."}, "LS-513": {"system": "LS-513", "assay_type": "functional, cell-based", "description": "SANGER: Inhibition of human LS-513 cell growth in a cell viability assay."}, "IST-SL1": {"system": "IST-SL1", "assay_type": "functional, cell-based", "description": "SANGER: Inhibition of human IST-SL1 cell growth in a cell viability assay."}, "K5": {"system": "K5", "assay_type": "functional, cell-based", "description": "SANGER: Inhibition of human K5 cell growth in a cell viability assay."}, "RXF 393": {"system": "RXF 393", "assay_type": "functional, cell-based", "description": "SANGER: Inhibition of human RXF393 cell growth in a cell viability assay."}, "P30-OHK": {"system": "P30-OHK", "assay_type": "functional, cell-based", "description": "SANGER: Inhibition of human P30-OHK cell growth in a cell viability assay."}}, "data": [{"smiles": "CC[C@@]1(O)C(=O)OCc2c1cc1n(c2=O)Cc2cc3ccccc3nc2-1", "note": "[CAMPTOTHECIN]", "values": [{"measurement": "IC50", "setting": "A388", "result": 10.1, "unit": "nM"}, {"measurement": "IC50", "setting": "MZ7-mel", "result": 8.61, "unit": "nM"}, {"measurement": "IC50", "setting": "KGN", "result": 10.6, "unit": "nM"}, {"measurement": "IC50", "setting": "HT-144", "result": 17.9, "unit": "nM"}, {"measurement": "IC50", "setting": "SHP77", "result": "> 100", "unit": "nM"}, {"measurement": "IC50", "setting": "EW-24", "result": 4.03, "unit": "nM"}, {"measurement": "IC50", "setting": "ES3", "result": 0.931, "unit": "nM"}, {"measurement": "IC50", "setting": "A704", "result": 15.4, "unit": "nM"}, {"measurement": "IC50", "setting": "KM12", "result": 75, "unit": "nM"}, {"measurement": "IC50", "setting": "LS-123", "result": "> 100", "unit": "nM"}, {"measurement": "IC50", "setting": "SNU-C2B", "result": 35.4, "unit": "nM"}, {"measurement": "IC50", "setting": "SK-MEL-2", "result": 54.8, "unit": "nM"}, {"measurement": "IC50", "setting": "ACN", "result": 85.7, "unit": "nM"}, {"measurement": "IC50", "setting": "JAR", "result": 14.5, "unit": "nM"}, {"measurement": "IC50", "setting": "A3-KAW", "result": 1.67, "unit": "nM"}, {"measurement": "IC50", "setting": "COR-L88", "result": 40.9, "unit": "nM"}, {"measurement": "IC50", "setting": "KY821", "result": 8.12, "unit": "nM"}, {"measurement": "IC50", "setting": "QIMR-WIL", "result": 0.775, "unit": "nM"}, {"measurement": "IC50", "setting": "GB-1", "result": 4.68, "unit": "nM"}, {"measurement": "IC50", "setting": "OCI-AML2", "result": 0.887, "unit": "nM"}, {"measurement": "IC50", "setting": "OS-RC-2", "result": 9.97, "unit": "nM"}, {"measurement": "IC50", "setting": "COLO-800", "result": 0.428, "unit": "nM"}, {"measurement": "IC50", "setting": "SBC-1", "result": 27.8, "unit": "nM"}, {"measurement": "IC50", "setting": "C8166", "result": 41.5, "unit": "nM"}, {"measurement": "IC50", "setting": "COLO-668", "result": 22.3, "unit": "nM"}, {"measurement": "IC50", "setting": "SJSA-1", "result": 18, "unit": "nM"}, {"measurement": "IC50", "setting": "ES8", "result": 0.796, "unit": "nM"}, {"measurement": "IC50", "setting": "EW-3", "result": 0.319, "unit": "nM"}, {"measurement": "IC50", "setting": "HuTu80", "result": 3.38, "unit": "nM"}, {"measurement": "IC50", "setting": "SNU-5", "result": 42.7, "unit": "nM"}, {"measurement": "IC50", "setting": "EOL1", "result": 0.271, "unit": "nM"}, {"measurement": "IC50", "setting": "SK-PN-DW", "result": 1.16, "unit": "nM"}, {"measurement": "IC50", "setting": "IA-LM", "result": 12, "unit": "nM"}, {"measurement": "IC50", "setting": "RKO", "result": 4.23, "unit": "nM"}, {"measurement": "IC50", "setting": "LNCaP-Clone-FGC", "result": 31, "unit": "nM"}, {"measurement": "IC50", "setting": "NCI-H1155", "result": 1.19, "unit": "nM"}, {"measurement": "IC50", "setting": "BB30-HNC", "result": 21.5, "unit": "nM"}, {"measurement": "IC50", "setting": "HCE-4", "result": 1.81, "unit": "nM"}, {"measurement": "IC50", "setting": "BE-13", "result": 4.56, "unit": "nM"}, {"measurement": "IC50", "setting": "LB831-BLC", "result": 18.4, "unit": "nM"}, {"measurement": "IC50", "setting": "KMOE-2", "result": 11.3, "unit": "nM"}, {"measurement": "IC50", "setting": "EW-1", "result": 1.78, "unit": "nM"}, {"measurement": "IC50", "setting": "NCI-H209", "result": 0.0484, "unit": "nM"}, {"measurement": "IC50", "setting": "DMS-114", "result": 81.1, "unit": "nM"}, {"measurement": "IC50", "setting": "SW872", "result": 24.2, "unit": "nM"}, {"measurement": "IC50", "setting": "IST-MEL1", "result": 3.81, "unit": "nM"}, {"measurement": "IC50", "setting": "NCI-H446", "result": 56.6, "unit": "nM"}, {"measurement": "IC50", "setting": "GCIY", "result": 66.1, "unit": "nM"}, {"measurement": "IC50", "setting": "GOTO", "result": 0.706, "unit": "nM"}, {"measurement": "IC50", "setting": "LB2241-RCC", "result": 2.08, "unit": "nM"}, {"measurement": "IC50", "setting": "CCRF-CEM", "result": 5.55, "unit": "nM"}, {"measurement": "IC50", "setting": "ES1", "result": 0.0957, "unit": "nM"}, {"measurement": "IC50", "setting": "LS-513", "result": 19.4, "unit": "nM"}, {"measurement": "IC50", "setting": "IST-SL1", "result": 34.4, "unit": "nM"}, {"measurement": "IC50", "setting": "K5", "result": 3.2, "unit": "nM"}, {"measurement": "IC50", "setting": "RXF 393", "result": 4.66, "unit": "nM"}, {"measurement": "IC50", "setting": "P30-OHK", "result": 2.79, "unit": "nM"}]}]}
